A word on the pIC50: it is the IC50 on a negative log10 scale, so that one unit is a factor of ten.

Each structure is given as a SMILES string. pIC50: −log10 of the molar value.

The target in assay [1] is recombinant BACE1 protein (Homo sapiens (Human), UniProt P56817). Put plainly: BACE1 biochemical FRET based assay. The following applies: for Selectivity: BACE1 versus BACE2; for pIC50: FRET, pH 5.0. From the text: (1) BACE1 Biochemical FRET Based Assay
(§1) This assay is a Fluorescence Resonance Energy Transfer Assay (FRET) based assay. The substrate for this assay is an APP derived 13 amino acids peptide that contains the ‘Swedish’ Lys-Met/Asn-Leu mutation of the amyloid precursor protein (APP) beta-site secretase cleavage site. This substrate also contains two fluorophores: (7-methoxycoumarin-4-yl) acetic acid (Mca) is a fluorescent donor with excitation wavelength at 320 nm and emission at 405 nm and 2,4-dinitrophenol (Dnp) is a proprietary quencher acceptor. […] Upon cleavage by BACE1, the fluorophore Mca is separated from the quenching group Dnp, restoring the full fluorescence yield of the donor. The increase in fluorescence is linearly related to the rate of proteolysis.
Briefly in a 384-well format recombinant BACE1 protein in a final concentration of 0.04 μg/mL was incubated for 450 minutes at room temperature with […] substrate in incubation buffer (final concentrations: 33.3 mM Citrate buffer pH 5.0, 0.033% PEG, 3% DMSO) in the absence or presence of compound. Next the amount of proteolysis was directly measured by fluorescence measurement at T=0′-120′ and T=450′ (excitation at 320 nm and emission at 405 nm). Results were expressed in RFU (Relative Fluorescence Units), as difference between T450 and Tx (Tx is chosen depending on the reaction speed between 0 and 120 minutes).
(§2) A best-fit curve was fitted by a minimum sum of squares method to the plot of % Controlmin versus compound concentration. From this an IC50 value (inhibitory concentration causing 50% inhibition of activity) can be obtained.
(§3) LC=Median of the low control values
(§4) =Low control: Reaction without enzyme
(§5) HC=Median of the High control values
=High Control: Reaction with enzyme % Effect=100−[(sample−LC)/(HC−LC)*100] % Control=(sample/HC)*100 % Controlmin=(sample−LC)/(HC−LC)*100

Assay [2] relates to Abeta 1-42 in cerebrospinal fluid (CSF). In words: Pharmacology in the beagle dog: beta-amyloid profile in CSF. Format: in vivo. On the procedure: Test compounds were tested to evaluate the effect on the beta-amyloid profile in cerebrospinal fluid (CSF) of dogs after a single dose, in combination with pharmacokinetic (PK) follow up and limited safety evaluation.
In the case of compounds shown below, two or 4 beagle dogs (1 or 2 male, 1 or 2 female) were dosed with vehicle (1 mL/kg of an aqueous solution of 20% cyclodextrin) and 4 beagle dogs (2 males and 2 females) per dose group were dosed with test compound at the doses indicated in Table 20 in an aqueous 20% cyclodextrin solution with a concentration in mg/mL identical to the dose given in mg/kg) on an empty stomach.
CSF was taken in conscious animals directly from the lateral ventricle via a cannula which was screwed in the skull and covered with subcutaneous tissue and skin, before and at 4, 8, 25 and 49 hours after dosing. Eight hours after dosing the animals got access to their regular meal for 30 minutes. Blood was taken for PK follow up (0.5, 1, 2, 4, 8, 25 and 49 hours) and serum samples for biochemistry were taken before and at 8 and 25h after dosing. The CSF samples were used for measurement of Abeta 1-37, Abeta 1-38, Abeta 1-40 and Abeta 1-42.

For assay [3], the target named is recombinant BACE2 protein (Homo sapiens (Human), UniProt Q9Y5Z0). In words: BACE2 biochemical FRET based assay. The following applies: pH 5.0.
Chain of recombinant BACE2 protein (Q9Y5Z0 63-518): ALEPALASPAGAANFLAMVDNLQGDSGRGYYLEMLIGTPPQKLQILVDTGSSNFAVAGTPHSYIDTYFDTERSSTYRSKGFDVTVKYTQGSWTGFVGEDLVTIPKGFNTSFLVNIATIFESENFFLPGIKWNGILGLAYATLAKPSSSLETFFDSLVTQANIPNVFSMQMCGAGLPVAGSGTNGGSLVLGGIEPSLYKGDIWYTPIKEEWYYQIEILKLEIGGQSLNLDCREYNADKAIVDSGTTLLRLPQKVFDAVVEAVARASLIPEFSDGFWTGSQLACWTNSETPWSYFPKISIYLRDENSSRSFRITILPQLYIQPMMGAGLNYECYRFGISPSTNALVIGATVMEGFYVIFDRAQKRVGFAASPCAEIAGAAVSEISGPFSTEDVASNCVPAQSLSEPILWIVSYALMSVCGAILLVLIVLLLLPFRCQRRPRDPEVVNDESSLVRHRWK
Text: (2) BACE2 Biochemical FRET Based Assay
as §1, with “assay” for “assay is an APP derived 13 amino acids peptide that”, “beta-secretase” for “beta-site secretase”, “the beta-secretase,” for “BACE1,”
Briefly in a 384-well format recombinant BACE2 protein in a final concentration of 0.4 μg/mL was incubated for 450 minutes at room temperature with 10 μM substrate in incubation buffer (final concentrations: 33.3 mM Citrate buffer pH 5.0, 0.033% PEG, 2% DMSO) in the absence or presence of compound. Next the amount of proteolysis was directly measured by fluorescence measurement at T=0 and T=450 (excitation at 320 nm and emission at 405 nm). Results were expressed in RFU (Relative Fluorescence Units), as difference between T450 and TO.
as §2, §3, §4, §5

Chain of recombinant BACE1 protein (P56817 46-501): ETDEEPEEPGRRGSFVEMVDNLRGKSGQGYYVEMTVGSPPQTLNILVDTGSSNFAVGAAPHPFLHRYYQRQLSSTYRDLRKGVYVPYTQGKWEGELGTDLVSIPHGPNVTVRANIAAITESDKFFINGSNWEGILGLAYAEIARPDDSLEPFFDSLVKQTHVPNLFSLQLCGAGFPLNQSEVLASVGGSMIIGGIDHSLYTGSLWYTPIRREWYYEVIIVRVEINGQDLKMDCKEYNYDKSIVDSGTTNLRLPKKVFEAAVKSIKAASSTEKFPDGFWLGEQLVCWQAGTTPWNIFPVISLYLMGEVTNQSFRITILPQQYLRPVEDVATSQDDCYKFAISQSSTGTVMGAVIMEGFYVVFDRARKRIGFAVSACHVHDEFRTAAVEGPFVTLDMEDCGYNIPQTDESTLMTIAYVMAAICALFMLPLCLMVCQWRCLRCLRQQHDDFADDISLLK

Regarding `NC1=N[C@](CF)(c2cc(NC(=O)c3cnc(OCF)cn3)ccc2F)[C@H]2COCC[C@H]2O1` [Compound I-007], in assay [1], the Selectivity is listed as 40.7 and the pIC50 was 8.13. Besides, in assay [2] (single dose 0.31 mg/kg), the “% Decrease in Abeta 1-42 at 8 h post dosing compared to own baseline” value is recorded as −61% and the “% Decrease in Abeta 1-42 at 24 h^(a) or 25 h^(b) post dosing compared to own baseline” value was −23%. In addition, in assay [2] (single dose 0.63 mg/kg), the “% Decrease in Abeta 1-42 at 8 h post dosing compared to own baseline” value is recorded as −69% and the “% Decrease in Abeta 1-42 at 24 h^(a) or 25 h^(b) post dosing compared to own baseline” value was −48%. Moreover, in assay [2] (single dose 3.75 mg/kg), the “% Decrease in Abeta 1-42 at 8 h post dosing compared to own baseline” value was −64%, the “% Decrease in Abeta 1-42 at 24 h^(a) or 25 h^(b) post dosing compared to own baseline” value was −82% and the “% Decrease in Abeta 1-42 at 49 h post dosing compared to own baseline” value is −40%. Further, the negative-log IC50 (pIC50) in assay [3] was 6.52.

On to `COc1cnc(C(=O)Nc2ccc(F)c([C@@]3(CF)N=C(N)O[C@@H]4CCOC[C@@H]43)c2)cn1` [Compound I-067], for which the Selectivity in assay [1] is reported as 30.2. The negative-log IC50 (pIC50) in assay [1] is 8.05; in assay [3], 6.57. For the same molecule, the “% Decrease in Abeta 1-42 at 8 h post dosing compared to own baseline” value in assay [2] (single dose 0.31 mg/kg) was −36%; in assay [2] (single dose 0.63 mg/kg) it was −64%.

As for `C[C@@H]1C[C@H]2OC(N)=N[C@](CF)(c3cc(NC(=O)c4cnc(OCF)cn4)ccc3Cl)[C@H]2CO1` [Compound I-065], in assay [1], the Selectivity was 35.5 and the negative-log IC50 (pIC50) is 8.02. In assay [2] (single dose 0.63 mg/kg), the “% Decrease in Abeta 1-42 at 8 h post dosing compared to own baseline” value is listed as −49%, the “% Decrease in Abeta 1-42 at 24 h^(a) or 25 h^(b) post dosing compared to own baseline” value was −52% and the “% Decrease in Abeta 1-42 at 49 h post dosing compared to own baseline” value is reported as −20%. For the same molecule, in assay [2] (single dose 1.25 mg/kg), the “% Decrease in Abeta 1-42 at 8 h post dosing compared to own baseline” value is −59%, the “% Decrease in Abeta 1-42 at 24 h^(a) or 25 h^(b) post dosing compared to own baseline” value is recorded as −56% and the “% Decrease in Abeta 1-42 at 49 h post dosing compared to own baseline” value is −34%. Further, the pIC50 in assay [3] is 6.47.

On to `NC1=N[C@](CF)(c2cc(NC(=O)c3cnc(-n4cncn4)cn3)ccc2F)[C@H]2COCC[C@H]2O1` [Compound I-047], for which, in assay [1], the Selectivity was found to be 69.2 and the negative logarithm of the IC50 (pIC50) was 7.77. In addition, the pIC50 in assay [3] was 5.93.

Take `C[C@@H]1C[C@H]2OC(N)=N[C@](CF)(c3cc(NC(=O)c4cnc(OCF)cn4)ccc3F)[C@H]2CO1` [Compound I-008]: in assay [1], the Selectivity was determined as 43.7 and the negative logarithm of the IC50 (pIC50) was 7.83. Further, in assay [2] (single dose 0.31 mg/kg), the “% Decrease in Abeta 1-42 at 8 h post dosing compared to own baseline” value was −57%, the “% Decrease in Abeta 1-42 at 24 h^(a) or 25 h^(b) post dosing compared to own baseline” value is recorded as −28% and the “% Decrease in Abeta 1-42 at 49 h post dosing compared to own baseline” value is given as −25%. In assay [2] (single dose 0.63 mg/kg), the “% Decrease in Abeta 1-42 at 8 h post dosing compared to own baseline” value is −58% and the “% Decrease in Abeta 1-42 at 24 h^(a) or 25 h^(b) post dosing compared to own baseline” value was −48%. For the same molecule, in assay [2] (single dose 2.5 mg/kg), the “% Decrease in Abeta 1-42 at 8 h post dosing compared to own baseline” value is recorded as −81%, the “% Decrease in Abeta 1-42 at 24 h^(a) or 25 h^(b) post dosing compared to own baseline” value is −76% and the “% Decrease in Abeta 1-42 at 49 h post dosing compared to own baseline” value is −49%. For the same molecule, the negative logarithm of the IC50 (pIC50) in assay [3] is 6.19.

On to `NC1=N[C@](CF)(c2cc(NC(=O)c3cnc(OC(F)F)cn3)ccc2F)[C@H]2COCC[C@H]2O1` [Compound I-076], for which the Selectivity in assay [1] is 63.1. In addition, the negative-log IC50 (pIC50) in assay [1] is 8.55; in assay [3], 6.75. Moreover, the “% Decrease in Abeta 1-42 at 8 h post dosing compared to own baseline” value in assay [2] (single dose 0.31 mg/kg) is recorded as −68%; in assay [2] (single dose 0.63 mg/kg), −65%.

On to `NC1=N[C@](CF)(c2cc(NC(=O)c3ccc(C(F)(F)F)cn3)ccc2F)[C@H]2COCC[C@H]2O1` [Compound I-105], for which the Selectivity in assay [1] is reported as 17.8. Besides, the pIC50 in assay [1] is 7.77; in assay [3] it was 6.52.

Source of the values: patent US11629154B2, “Tetrahydropyranooxazine derivatives having selective BACE1 inhibitory activity” (SHIONOGI & CO., LTD., priority 2018, dated 2023).
